According to patent US20260345609A1, “METHODS FOR PROMOTING PERSISTENCE OF CELL THERAPY” (Legend Biotech Ireland Limited, priority 2022, published 2026):

What was measured:
Assay type in all cases: cell-based, human
LUCAR-20SD cells = assay: Effect of MTX concentration on proliferation of LUCAR-20SD cells in vitro (AOPI counting)
From the text: pLVX-Puro vector purchased from Clontech was subjected to the digestion reaction with ClaI and EcoRI restriction enzymes, and the CMV promoter was replaced with a human EFlapromoter (GenBank: J04617.1) to obtain the pLVX-hEF1α vector. The gene of DHFR L22F/F31S (SEQ ID NO: 1) was inserted between SIV NEF M116 and CD20 CAR of LCAR-UL186S, which was disclosed in PCT patent applications No. PCT/CN2020/112181 and PCT/CN2020/112182. The fusion gene sequence of SIV Nef_M116-P2A-DHFR L22F/F31S-IRES-CD8α SP-CD20 scFv (Leu16)-CD8α Hinge-CD8α TM-4-1BB-ITAM010, hereinafter referred to as “LUCAR-20SD” (SEQ ID NO: 4) was cloned into the expression plasmid pLVX-hEF1α to form the LUCAR-20SD expression plasmid named as M1586. The recombinant expression plasmid M1586 was extracted, mixed with psPAX2 and pMD2. G helper plasmids in a certain proportion, and co-transfected into HEK 293T cells. After 60 h of transfection, the cell culture supernatant containing the virus was collected and centrifuged at 4° C. and 3000 rpm for 5 min. After the supernatant was filtered through a 0.45 μm filter, the 500 KD hollow fiber membrane column tangential flow technique was used to further concentrate to prepare a lentivirus concentrate, which was stored at-80° C. for later use.
50 mL of fresh peripheral blood of volunteers was extracted, and mixed with lymphocyte separation medium. The peripheral blood mononuclear cells (PBMC) were separated by density gradient centrifugation. The cells were labeled with magnetic beads using Pan T Cell Isolation Kit (Miltenyi Biotech), and T lymphocytes were isolated and purified, and then activated by CD3/CD28 magnetic beads. After culturing for 24 hours in a 37° C., 5% CO2 incubator, 5×10^6 activated T lymphocytes were infected with the lentiviral vector of LUCAR-20SD. […]
Cultured with the addition of methotrexate (MTX) at the concentrations of 0 μM, 0.01 μM, 0.05 μM, 0.1 μM, 1 μM, or 2 μM, the cell number of LUCAR-20SD cells at day0 day3 day6 day9, day 12, and the cell number of CAR-γδT cells at day0 day2 day5 day7 were counted by AOPI. […]

CAR-γδT cells [1] = assay: In vitro mixed lymphoid (MLR) model with CAR-γδT cells, UnT and U937 cells: graft CAR-γδT cells; conditions: 0.05 μM and 0.5 μM MTX
Description: To evaluate the ability of γδ T cells to tolerate allogeneic T cell rejection, an in vitro mixed lymphoid (MLR) model was established.
Using the T cells from a random healthy donor (B donor), CAR-γδT cells were prepared following the method in Example 1, as the graft cells. Un-transduced T cells (UnT) from another random healthy donor (T cell donor A) were also prepared, as the host cells.
The density of CLL1 positive human lymphoma cells (U937) was adjusted to 1×10^6 cells/mL. U937 cells were treated with 20 μg/mL mitomycin at 37° C. for 3 h, washed three times with 10 mL DPBS, and suspended in the culture medium. 20×10^6 untransduced T cells (UnT, T cell donor A), 1×10^6 CAR-γδT cells (T cell donor B), and 5×10^6 treated human lymphoma cells U937 were mixed and cultured in the medium. The cell mixture was divided into 3 groups, and 0 μM, 0.05 μM MTX, or 0.5 μM MTX was added, respectively. […] CAR-γδT cells were stimulated repeatedly with U937 cells at day0, day4, day7 at an E/T ratio of 1:1 According to the formula: fold change of cell number (UnT)=[cell number counted by AOPI×(CD3-/TCR VY9+%)]/20, fold change of cell number (CAR-γδT)=[cell number counted by AOPI×(CD3+/TCR Vγ9+%)]/1, the cell proliferation curves of UnT and CAR-γδT cells were plotted.

CAR-γδT cells [2] = assay: Effect of MTX concentration on proliferation of CAR-γδT cells in vitro (AOPI counting)
Description: 50 mL of fresh peripheral blood of volunteers was extracted, mixed with lymphocyte separation medium, and then peripheral blood mononuclear cells (PBMC) were separated by density gradient centrifugation. The isolated lymphocytes were overnight cultured in RPMI 1640 medium, supplemented with L-glutamine (2 mM, Sigma-Aldrich), penicillin (100 IU/mL)/streptomycin (100 μg/mL) (Sigma-Aldrich, Missouri, USA), 10% serum (Gibco, Massachusetts, USA), zoledronic acid (5 μM, Actavis, New Jersey, USA), IL-2 (100 IU/mL; Aldesleukin, Novartis, Frimley, UK). The γδT cells selected above were transduced with lentiviral vector expressing an anti-CLL1 CAR and DHFR L22F/F31S at a multiplicity of infection (MOI) of 5. After 48 hours of transduction, IL-2 (100 IU/mL) was added every 2-3 days to expand T cells expressing the anti-CLL1 CAR (hereinafter referred to as CAR-γδT cells).
Cultured with the addition of methotrexate (MTX) at the concentrations of 0 μM, 0.01 μM, 0.05 μM, 0.1 μM, 1 μM, or 2 μM, the cell number of LUCAR-20SD cells at day0 day3 day6 day9, day 12, and the cell number of CAR-γδT cells at day0 day2 day5 day7 were counted by AOPI. Cell proliferation curves were plotted separately.

`CN(Cc1cnc2nc(N)nc(N)c2n1)c1ccc(C(=O)N[C@@H](CCC(=O)O)C(=O)O)cc1` [MTX, methotrexate] was tested, and the “proliferation of LUCAR-20SD cells compared with 0 μM MTX” value (LUCAR-20SD cells; 0.01 μM to 1 μM MTX, day 12, p>0.05) was “no significant difference in cell proliferation”, the “proliferation of LUCAR-20SD cells compared with 0 μM MTX” value (LUCAR-20SD cells; 2 μM MTX, day 12, p<0.05) was “decreased significantly” and the minimal effective concentration (LUCAR-20SD cells; Homo sapiens, 288 h, day 12, read-out: MTX concentration that affects the proliferation of LUCAR-20SD cells) was no less than 2 µM. The “protective effect on heterologous CAR-γδT cells” value (CAR-γδT cells [1]) was “good protective effect on heterologous CAR-γδT cells”, the “proliferation of CAR-γδT cells compared with 0 μM MTX” value (CAR-γδT cells [2]; 0.01 μM to 0.1 μM MTX, day 7, p>0.05) was “not significantly different” and the “proliferation of CAR-γδT cells compared with 0 μM MTX” value (CAR-γδT cells [2]; 1 μM MTX and 2 μM MTX, day 7, p<0.05, dose-dependent) was “significantly decreased”. The minimal effective concentration (CAR-γδT cells [2]; Homo sapiens, 168 h, day 7, read-out: MTX concentration that affects the proliferation of CAR-γδT cells) was no less than 1 µM.
